# Results from US5141934A, “Tetracyclic amines having pharmaceutical activity” (Warner-Lambert Company, priority 1990, dated 1992).
# Target: phencyclidine (PCP) receptors (noncompetitive NMDA antagonist binding site)
# Assay: Tritiated 1[1-(2 thienyl)cyclohexyl]piperidine (TCP) binding, designated RBS1
# Details: Table 1, read-out: RBSI IC50
# Experimental: The ability of the compounds of the instant invention to interact with phencyclidine (PCP) receptors which represents a noncompetitive NMDA antagonist binding site, is shown in Table 1. Tritiated 1[1-(2 thienyl)cyclohexyl]piperidine (TCP) binding, designated RBS1, was carried out essentially as described in J. Pharmacol. Exp. Ther., 238, 739 (1986).
row,Compound,IC50 [nM]
1,"CN1C[C@@H]2Cc3ccccc3[C@]13CCCC[C@@H]23 (relative stereo) [Example 16, (+/-)-(4aα,10α,10aα) 1,3,4,9,10,10a-Hexahydro-12-methyl-2H 4a,10-(iminomethano)phenanthrene]",137
2,"c1csc(C2(N3CCCCC3)CCCCC2)c1 [TCP, 1[1-(2 thienyl)cyclohexyl]piperidine]",9
3,"CCCN1C[C@@H]2Cc3ccccc3[C@]13CCCC[C@@H]23 (relative stereo) [Example 19, (+/-)-(4aα,10α,10aα)-1,3,4,9,10,10a-Hexahydro-12-propyl-2H-4a,10-(iminomethano)phenanthrene]",54
4,"c1ccc2c(c1)C[C@H]1CN(CC3CC3)[C@@]23CCCC[C@@H]13 (relative stereo) [Example 20, (+/-)-(4aα,10α,10aα)-12-(Cyclopropylmethyl)-1,3,4,9,10,10a-hexahydro-2H-4a,10-(iminomethano)-phenanthrene]",51
5,"c1ccc(C2(N3CCCCC3)CCCCC2)cc1 [PCP, phencyclidine]",40
6,"c1ccc2c(c1)C[C@H]1CN[C@@]23CCCC[C@@H]13 (relative stereo) [Example 14, (+/-)-(4aα,10α,10aα) 1,3,4,9,10,10a Hexahydro-2H-4a,10-(iminomethano)phenanthrene]",86
